PubChem BioAssay AID248 (DTP/NCI, 2004)
“And” between values parts separate entries of the source, which are not always exact repeats. Equal values may be shown once. Toxic doses and inconclusive results are not listed. Cut-off read from the data, not from the text of the source: active = T/C of 150% or more; inactive = T/C below 125%. Peptide text beside a SMILES is read from it. * marks the point of attachment. Cbz = O=C(OCc1ccccc1)*; Bn = c1ccc(C*)cc1

Test system: L1210 leukemia ip in BDF1 mice, survival T/C
Experiment: NCI In Vivo Anticancer Drug Screen. Data for tumor model L1210 Leukemia (intraperitoneal) in B6D2F1 (BDF1) mice
Settings: endpoint: mean survival time, higher = longer survival
Summary of the method: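 Tumor was transplanted into mice, which were then dosed with test compound or vehicle alone. Survival was recorded for each group, and the treated figure was expressed relative to the control figure.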

[1] = dose: 5.0 mg/kg/injection, schedule: Q01DX001 (ip), vehicle: other
[2] = dose: 10.0 mg/kg/injection, schedule: Q01DX001 (ip), vehicle: other
[3] = dose: 20.0 mg/kg/injection, schedule: Q01DX001 (ip), vehicle: other
[4] = dose: 40.0 mg/kg/injection, schedule: Q01DX001 (ip), vehicle: other
[5] = dose: 80.0 mg/kg/injection, schedule: Q01DX001 (ip), vehicle: other
[6] = dose: 100.0 mg/kg/injection, schedule: Q04DX003 (ip), vehicle: Klucel (hydroxypropylcellulose) (HPC)
[7] = dose: 100.0 mg/kg/injection, schedule: Q04DX003 (ip), vehicle: saline
[8] = dose: 200.0 mg/kg/injection, schedule: Q04DX003 (ip), vehicle: saline
[9] = dose: 400.0 mg/kg/injection, schedule: Q04DX003 (ip), vehicle: saline

Measured: T/C

NC(=O)NN=C(CS)CS
inactive: dose: 0.5 mg/kg/injection, schedule: Q01DX015 (ip), vehicle: carboxymethylcellulose (CMC) 93 % of control | dose: 1.0 mg/kg/injection, schedule: Q01DX015 (ip), vehicle: carboxymethylcellulose (CMC) 98 % of control | dose: 2.0 mg/kg/injection, schedule: Q01DX015 (ip), vehicle: carboxymethylcellulose (CMC) 96 % of control | dose: 4.0 mg/kg/injection, schedule: Q01DX015 (ip), vehicle: carboxymethylcellulose (CMC) 98 % of control and 104 % of control | [1] 97 % of control | dose: 8.0 mg/kg/injection, schedule: Q01DX015 (ip), vehicle: carboxymethylcellulose (CMC) 98 % of control | [2] 97 % of control | dose: 16.0 mg/kg/injection, schedule: Q01DX015 (ip), vehicle: carboxymethylcellulose (CMC) 98 % of control | [3] 94 % of control | dose: 25.0 mg/kg/injection, schedule: Q04DX003 (ip), vehicle: Klucel (hydroxypropylcellulose) (HPC) 104 % of control | dose: 32.0 mg/kg/injection, schedule: Q01DX015 (ip), vehicle: carboxymethylcellulose (CMC) 98 % of control | [4] 97 % of control | dose: 50.0 mg/kg/injection, schedule: Q04DX003 (ip), vehicle: Klucel (hydroxypropylcellulose) (HPC) 101 % of control | [5] 95 % of control | [6] 101 % of control

Cc1ccc(-c2ccc(C)s2)s1
inactive: dose: 50.0 mg/kg/injection, schedule: Q01DX009 (ip), vehicle: acetone 95 % of control | dose: 100.0 mg/kg/injection, schedule: Q01DX009 (ip), vehicle: acetone 90 % of control | [7] 96 % of control | dose: 200.0 mg/kg/injection, schedule: Q01DX009 (ip), vehicle: acetone 90 % of control | [8] 93 % of control | [9] 100 % of control

CC(=N/N(C)c1ccccc1)/C(C)=N/N(C)c1ccccc1
inactive: [1] 96 % of control | [2] 102 % of control | [3] 100 % of control | [4] 100 % of control | [5] 93 % of control

CCOc1ccc(N=NS(=O)(=O)O)cc1
inactive: dose: 1.25 mg/kg/injection, schedule: Q01DX009 (ip), vehicle: saline with Tween-80 94 % of control | dose: 2.5 mg/kg/injection, schedule: Q01DX009 (ip), vehicle: saline with Tween-80 91 % of control | dose: 5.0 mg/kg/injection, schedule: Q01DX009 (ip), vehicle: saline with Tween-80 94 % of control

COc1ccc(CCN=Cc2ccc3c(c2)Cc2ccccc2-3)cc1OC
inactive: [7] 105 % of control | [8] 108 % of control | [9] 90 % of control

CCOC(=O)c1ccc(S(=O)(=O)NCCCc2c(C)nc(N)[nH]c2=O)cc1
inactive: dose: 12.5 mg/kg/injection, schedule: Q01DX001 (ip), vehicle: saline with Tween-80 90 % of control | dose: 25.0 mg/kg/injection, schedule: Q01DX001 (ip), vehicle: saline with Tween-80 103 % of control | dose: 50.0 mg/kg/injection, schedule: Q01DX001 (ip), vehicle: saline with Tween-80 90 % of control

COC(=O)C(NC(=O)C(CSCc1ccccc1)NC(=O)OCc1ccccc1)C(C)C (stereo unspecified) (Cbz-Cys(Bn)-Val-OMe; configuration not given here)
inactive: [6] 95 % of control | dose: 200.0 mg/kg/injection, schedule: Q04DX003 (ip), vehicle: Klucel (hydroxypropylcellulose) (HPC) 97 % of control | dose: 400.0 mg/kg/injection, schedule: Q04DX003 (ip), vehicle: Klucel (hydroxypropylcellulose) (HPC) 95 % of control

CN/C([S-])=N/N=C/C(=N/N=C(\[S-])NC)c1ccc(-c2ccccc2)cc1.[Cu+2]
inactive: dose: 100.0 mg/kg/injection, schedule: Q04DX002 (ip), vehicle: Klucel (hydroxypropylcellulose) (HPC) 106 % of control | dose: 200.0 mg/kg/injection, schedule: Q04DX002 (ip), vehicle: Klucel (hydroxypropylcellulose) (HPC) 95 % of control | dose: 400.0 mg/kg/injection, schedule: Q04DX002 (ip), vehicle: Klucel (hydroxypropylcellulose) (HPC) 100 % of control
